# Like-named read-outs stand apart in the source and are kept apart here. Peptide text beside a SMILES is read from it. * marks the point of attachment. Cbz = O=C(OCc1ccccc1)*
# Legend:
# [1] = tested on: CCR2-HaloTag-HiBiT; assay: Lytic HiBiT assay with inhibitor pretreatment (2 h) then vehicle or HaloPROTAC3 (3 h); format: cell-based, human; conditions: 5 µg plasmid; for HaloPROTAC3-mediated CCR2 degradation after pretreatment with the inhibitor: inhibitor 2 h pretreatment, then 1 µM HaloPROTAC3 3 h
# Protocol: To investigate the mechanism of action of HaloPROTAC3-induced degradation of CCR2-HaloTag-HiBiT, we pretreated the cells with a variety of inhibitors. […] After 2 h, the cells were treated with vehicle or HaloPROTAC3 (1µM) and degradation was measured after 3 h of HaloPROTAC3 treatment or vehicle control.
# Next, we explored whether degradation occurs via the proteasomal or the lysosomal pathway. […] Finally, we included cycloheximide as an inhibitor of protein synthesis.
# Fractional RLU values were calculated from the resulting baseline-corrected values by normalizing all values at a given time point to the vehicle-control value. For lytic HiBiT assays, data are presented as % of vehicle-control; for real-time HiBiT assays, data are presented as fractional RLUs, which corresponds to the ratio between the baseline-corrected RLU values of a compound and the RLU values of the vehicle at any given time point. […] To calculate the degradation rate (K) from real-time HiBiT assays, the degradation curves were fitted to a one-phase exponential decay model following the equation Y = (Y0 − Plateau)e^−Kt + Plateau.
# [2] = target: T1, CCR2-HaloTag-HiBiT (UniProt P0A3G2+P41597, A155T/A167V/A172T/A224E/C128F/C176G/D78G/E160K/E257K/H272N/K175M/K195N/L47V/L88M/N227D/S58T/T264A/Y273L/Y87F); format: cell-based, human
# [3] = target: T1, CCR2-HaloTag-HiBiT; format: cell-based, human; conditions: 1 µM pretreatment 3 h, then 60 nM CCL2; HEK293T CCR2-HaloTag-HiBiT
# [4] = target: T1, CCR2-HaloTag-HiBiT; format: cell-based, human; conditions: for Dmax ± SEM (maximal degradation): determined at 1 µM, negative values represent an increase in CCR2 levels
# [5] = target: T2, CCR2-HaloTag-HiBiT (Homo sapiens, UniProt P41597); format: cell-based
# T2 construct: host or cells: A549 cells, lentiviral transduction, single-cell clones #25, #26, #27
# Source text: While the HiBiT luminescence approach provides a good platform for high-throughput screening of targeted protein degradation, integral membrane protein degradation studies benefit from information about their localization. […] To mitigate the need for transfection, we transduced A549 cells with lentiviral particles for stable integration of expression cassettes for CCR2-HaloTag-HiBiT expression constructs, followed by antibiotic selection and limiting dilution to generate single-cell clones.
# A549 cells were seeded at 400,000 cells per well in 6 well dishes to be approximately 50% confluent the next day. For seeding 1.5 mL of cell-containing medium was used. A total of 500 µL of lentiviral particles and 1.6 µL of polybrene (Sigma-Aldrich, Merck, Darmstadt, Germany) were added on top, and cells were incubated overnight. The next day, cells were washed two to three times in PBS and a growth medium containing 100 µg/mL of hygromycin B at 100 µg/mL was added. Cells were incubated until non-transduced cells were dead or until transduced cells were confluent (in which case they were split into a bigger flask in a hygromycin selection medium). After selection, cells were diluted to 0.5 cells/200 µL in a growth medium containing 20% FCS, and 96 well plates were seeded with 200 µL per well. Single-cell clones were grown back up to bigger populations and screened by immunofluorescence for HiBiT expression.
# A549 CCR2b-HALO-HiBiT expressing cells were seeded onto 384-well plates suitable for high-throughput microscopy (PerkinElmer, Groningen, The Netherlands; Corning, NY, USA) with a density ranging from 2000–4000 cells per well. The next day, plates were treated with different concentrations of HaloPROTAC3 or ent-HaloPROTAC3 using a Tecan D300e digital dispenser. […] Cells were then washed three times in PBS and simultaneously permeabilized and blocked for an hour using a modified blocking buffer (0.1% Triton (v/v), 1% BSA (w/v) (Sigma, A7030, Merck, Darmstadt, Germany)). […] Plates were imaged on either Yokogawa CV7000 or CV8000 systems with appropriate settings for detection of each relevant channel. Images were analyzed using Columbus image analysis.
# [6] = target: T1, CCR2-HaloTag-HiBiT; assay: xCELLigence label-free impedance assay, CCL2 stimulation of HEK293T cells transfected with CCR2-HaloTag-HiBiT; conditions: HEK293T cells expressing CCR2-HaloTag-HiBiT
# T1 sequence (P41597+P0A3G2 fused with the stated changes): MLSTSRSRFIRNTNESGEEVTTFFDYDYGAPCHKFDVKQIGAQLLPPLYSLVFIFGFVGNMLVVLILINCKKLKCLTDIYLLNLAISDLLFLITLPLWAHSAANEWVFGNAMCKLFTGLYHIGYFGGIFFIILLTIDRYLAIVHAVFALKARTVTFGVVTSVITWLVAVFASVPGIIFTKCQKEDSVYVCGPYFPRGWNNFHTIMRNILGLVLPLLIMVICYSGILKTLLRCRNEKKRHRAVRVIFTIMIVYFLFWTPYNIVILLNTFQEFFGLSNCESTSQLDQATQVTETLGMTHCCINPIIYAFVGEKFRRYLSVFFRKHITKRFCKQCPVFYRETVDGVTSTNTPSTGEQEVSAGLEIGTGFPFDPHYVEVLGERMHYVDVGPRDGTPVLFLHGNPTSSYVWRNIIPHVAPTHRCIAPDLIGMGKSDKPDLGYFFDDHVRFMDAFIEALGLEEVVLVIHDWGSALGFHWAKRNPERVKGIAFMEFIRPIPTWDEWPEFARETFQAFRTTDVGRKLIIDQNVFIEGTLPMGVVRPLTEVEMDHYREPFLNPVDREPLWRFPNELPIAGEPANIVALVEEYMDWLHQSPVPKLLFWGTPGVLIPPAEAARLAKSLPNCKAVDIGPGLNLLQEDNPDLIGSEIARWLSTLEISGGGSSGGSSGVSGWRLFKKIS
# T2 sequence (P41597 other isoform, or with tags, fused parts or gaps): as the sequence (P41597+P0A3G2 fused with the stated changes) above
compound,measurement,setting,value
COc1cc(C(=O)O)ccc1NC(=O)[C@@H]1N[C@@H](CC(C)(C)C)[C@](C#N)(c2ccc(Cl)cc2F)[C@H]1c1cccc(Cl)c1F [idasanutlin],HaloPROTAC3-mediated CCR2 degradation after pretreatment with the inhibitor,[1],neither pomalidomide nor idasanutlin had an effect
C[C@@H]1C[C@@H]([C@H](O)CC2CC(=O)NC(=O)C2)C(=O)[C@@H](C)C1 [cycloheximide],native degradation rate (Knative) of CCR2-HaloTag-HiBiT,"[2]; 10 µM cycloheximide, up to 24 h",0.25 ± 0.01 h⁻¹
same,HaloPROTAC3-mediated CCR2 degradation after pretreatment with the inhibitor,[1],not affected
same,"reduction in CCR2 levels, exclusive treatment with inhibitor",[1]; inhibitor 2 h then vehicle 3 h,more than 50%
Cc1ncsc1-c1ccc(CNC(=O)[C@@H]2C[C@@H](O)CN2C(=O)[C@H](C(C)C)N2Cc3ccccc3C2=O)c(OCCOCCOCCOCCCCCCCl)c1 [HaloPROTAC3],"remaining CCL2 response (AUC first 20 min, normalized to 60 nM CCL2 alone)",[3],25 ± 19%
same,decrease in CCR2 levels (luminescent signal) compared to vehicle control,"[4]; 1 µM, 24 h, 5 µg plasmid",~ 35%
same,"CCR2 degraded, time course","[4]; 1 µM, after 4 h, 5 µg plasmid (Figure S4)",Approximately 20%
same,"CCR2 degraded, time course","[4]; 1 µM, after 24 h, 5 µg plasmid (Figure S4)",26%
same,"CCR2 degraded, time course (maximum degradation)","[4]; 1 µM, by 6 h, 5 µg plasmid (Figure S4)",24%
same,pDC50 ± SEM (apparent potency of degradation),"[4]; 24 h, 5 µg plasmid",7.4 ± 0.01
same,DC50,"[4]; 24 h, 5 µg plasmid, read-out: DC50 (apparent degradation potency) (converted)",42 nM
same,Dmax ± SEM (maximal degradation),[4]; 24 h,38 ± 5%
same,degradation of CCR2-HaloTag-HiBiT depending on the protein expression levels,[4]; summary over lytic and real-time HiBiT assays (Figure 2 and Figure 3),30–80%
same,maximal degradation (HiBiT antibody signal),"[5]; A549 clone #25, 1 µM, 24 h",39%
same,DC50,"[5]; A549 clone #25, 24 h",17.1 nM
same,reduction of CCR2-HaloTag-HiBiT levels (HiBiT antibody signal),"[5]; A549 clone #26, 1 µM, 24 h",approximately 80%
same,DC50,"[5]; A549 clone #26, 24 h",18.1 nM
same,pDC50,"[5]; A549 clone #26, 24 h",7.8 ± 0.1
same,reduction of CCR2-HaloTag-HiBiT levels (HiBiT antibody signal),"[5]; A549 clone #27, 1 µM, 24 h",approximately 80%
same,DC50,"[5]; A549 clone #27, 24 h",11.8 nM
same,pDC50,"[5]; A549 clone #27, 24 h",8.0 ± 0.2
same,degradation achieved after 3 h treatment,"[2]; 1 µM (Figure 3B,F)",> 70%
same,degradation rate compared with cycloheximide on its own,[2]; 1 µM HaloPROTAC3 in absence or presence of 10 µM cycloheximide,higher than that determined by cycloheximide on its own
same,degradation rate (Kdeg),"[2]; 1 µM, 1 µg plasmid",0.47 ± 0.04 h⁻¹
same,maximal degradation at 24 h,"[2]; 1 µM, 1 µg plasmid",89 ± 2%
same,degradation reached after 9 h of treatment up to 24 h,"[2]; 1 µM, 3 µg plasmid",≥ 90%
same,maximal degradation at 24 h,"[2]; 1 µM, 3 µg plasmid",76 ± 4%
same,time Dmax was maintained,"[2]; 1 µM, 3 µg plasmid",~ 15 h
same,degradation rate (Kdeg),"[2]; 1 µM, 3 µg plasmid, one-phase exponential decay",0.52 ± 0.04 h⁻¹
same,degradation rate (Kdeg),"[2]; 1 µM, 5 µg plasmid",0.41 ± 0.17 h⁻¹
same,maximal degradation at 24 h,"[2]; 1 µM, 5 µg plasmid",60 ± 6%
same,degradation potency (pDmax50),"[2]; 3 µg plasmid, Dmax at each concentration",6.7 ± 0.1
same,CCR2 degradation by HaloPROTAC3 in the absence of inhibitor,"[1]; 1 µM HaloPROTAC3, 3 h",32%
"CCN(CC)CCCC(C)Nc1ccnc2cc(Cl)ccc12 (stereo not shown) [chloroquine, Chloroquine diphosphate]","effect on receptor levels, inhibitor on its own",[1]; inhibitor 2 h then vehicle 3 h,not affected
"NS(=O)(=O)OC[C@@H]1C[C@@H](n2ccc3c(N[C@H]4CCc5ccccc54)ncnc32)C[C@@H]1O [MLN-4924, Pevonedistat]",HaloPROTAC3-mediated CCR2 degradation after pretreatment with the inhibitor,[1],fully prevented
same,"reduction in CCR2 levels, exclusive treatment with inhibitor",[1]; inhibitor 2 h then vehicle 3 h,24%
CCL2: endogenous chemokine ligand of CCR2,efficacy (Emax) of CCL2,[6],68 ± 8%
same,pEC50 of CCL2-induced impedance increase,[6],7.6 ± 0.2
same,EC50,[6]; read-out: EC50 of CCL2-induced impedance increase,29 nM
CC(C)C[C@@H](C=O)NC(=O)[C@H](CC(C)C)NC(=O)[C@H](CC(C)C)NC(=O)OCc1ccccc1 [MG-132] (Cbz-Leu-Leu-Leu-aldehyde),HaloPROTAC3-mediated CCR2 degradation after pretreatment with the inhibitor,[1],partially or fully recovered
same,"reduction in CCR2 levels, exclusive treatment with inhibitor",[1]; inhibitor 2 h then vehicle 3 h,not observed
Cc1ncsc1-c1ccc(CNC(=O)[C@H]2C[C@H](O)CN2C(=O)[C@@H](C(C)C)N2Cc3ccccc3C2=O)c(OCCOCCOCCOCCCCCCCl)c1 [ent-HaloPROTAC3],"remaining CCL2 response (AUC first 20 min, normalized to 60 nM CCL2 alone)",[3],85 ± 10%
same,decrease in CCR2 levels (luminescent signal) compared to vehicle control,"[4]; 1 µM, 24 h, 5 µg plasmid",comparable to vehicle control
same,Dmax ± SEM (maximal degradation),[4]; 24 h,−1 ± 4%
same,CCR2 levels upon titration of compound (normalized to vehicle control 100%),"[4]; multiple concentrations, 24 h, maximal level reached",remained unchanged
same,effect on HiBiT immunofluorescence signal,"[5]; 1 µM, 24 h, A549 clones",appeared to increase the signal throughout the cell
same,CCR2 levels over 24 h,"[2]; 1 µM, all DNA plasmid concentrations (1, 3, 5 µg; Figure S5)",remained unchanged
same,"change of CCR2 levels, multiple concentrations","[2]; 3 µg plasmid, 24 h",did not change CCR2 levels at any of the concentrations tested
Nc1cccc2c1C(=O)N(C1CCC(=O)NC1=O)C2=O (stereo not shown) [pomalidomide],HaloPROTAC3-mediated CCR2 degradation after pretreatment with the inhibitor,[1],neither pomalidomide nor idasanutlin had an effect
"CO/C1=C\C(C)=C\[C@@H](C)[C@@H](O)[C@@H](C)C/C(C)=C/C=C/[C@H](OC)[C@@H]([C@@H](C)[C@@H](O)[C@H](C)[C@@]2(O)C[C@@H](O)[C@H](C)[C@@H](C(C)C)O2)OC1=O [Bafilomycin-A1, Bafilomycin A1]","increase in CCR2-HaloTag-HiBiT levels, exclusive treatment with inhibitor",[1]; inhibitor 2 h then vehicle 3 h,> 30%
CC(C)C[C@H](NC(=O)[C@H](Cc1ccccc1)NC(=O)c1cnccn1)B(O)O [bortezomib],HaloPROTAC3-mediated CCR2 degradation after pretreatment with the inhibitor,[1],partially or fully recovered
same,"reduction in CCR2 levels, exclusive treatment with inhibitor",[1]; inhibitor 2 h then vehicle 3 h,~ 17%
